Results taken from patent US20250228865A1, “COMPOUNDS FOR ENHANCING READ THROUGH OF GENES CONTAINING PREMATURE TERMINATION CODONS AND METHODS FOR MAKING AND USING THE SAME” (Sanofi US Services Inc., priority 2022, published 2025).
pEC50: −log10 of the molar value.

Legend:
[1] = test system: recombinant human CFTR carrying the premature stop codon (PTC) mutation R1162X; assay: CFTR-PTC mutant translation readthrough, Nanoluc tagged CFTR luminescence (R1162X cell line); type: cell-based; details: for CFTR R1162X ACTIVITY Fold 10 μM G-418: fold over 10 μM G-418, in combination with G418; for pEC50: in combination with G418, 16HBE cells, read-out: CFTR R1162X ACTIVITY EC50
Method: (§1) 16HBE human bronchial epithelial cells (stably over-expressing recombinant human CFTR carrying the premature stop codon (PTC) mutation G542X or R1162X along with a Nanoluc tag incorporated into the CFTR channel within extracellular loop 4 in G542X cell line or C-terminus end in the R1162X cell line were seeded at 0.01×10^6 cells/well and grown in Minimal Essential Medium (MEM) as monolayers in 384 well plates and incubated at 37° C. with 5% CO2. Media was changed every other day until day of experiment. Agents to be evaluated were made up in separate 384 well, polypropylene plates at a 2X the final desired test concentration. Test agent 10-point concentration response curves were constructed using the Labcyte Echo 555 acoustic dispenser. Test agents were typically tested at a max final test concentrations of 50 μM with sequential 2-fold lower concentrations below this in the absence or presence of a fixed 10 μM concentration of the aminoglycoside G418 made up in MEM growth media (reduced Serum Media+HEPES Buffer+2.4 g/L Sodium Bicarbonate+L-Glutamine containing CFTR corrector VX-809 (3 μM)). Treatment with 10 μM G418 alone produced approximately 10% of the response observed with a maximally effective concentration of G418 (typically 125-250 μM). Test agent effects in presence of 10 μM G418 were compared to control wells on the plate containing a maximally effective concentration of G418 (typically 125-250 μM) made up in the same media. 25 ul of test agents/control solutions were transferred from the compound plate to the cell plate, which already contained 25 ul/well of cell plating media, using an Integra Viaflo 384. Cell plates were incubated with the compounds for 48 hours, at which time they were processed using Nanoluc luminescence Kit (Promega Nano-Glo Live Cell Assay System) to measure CFTR-PTC mutant translation readthrough. Luminescence was measured as follows. Cell plates were removed from the incubator and allowed to equilibrate to room temperature for 20 minutes. Media was removed from all wells and the plates were blotted to remove excess remaining volume. Nano-Glo Live Cell Substrate was diluted 1:20 in the appropriate amount of Nano-Glo LCS Dilution Buffer to accommodate the number of cell plates being tested. The substrate/dilution buffer mix was then diluted 1:3 with MEM media to make the appropriate volume for the number of plates being tested. The substrate/dilution buffer/OptiMEM mix was added across the Nanoluc testing cell plates and the plates were read for luminescence signal immediately. Test agent effects on CFTR translation readthrough was determined by normalizing any observed increase in luminescence induced by 48 hours pretreatment with test compound to the magnitude of luminescence increase produced by pretreatment with a maximally effective concentration of the reference readthrough enhancing agent G418 (125-250 μM).

[2] = test system: recombinant human CFTR carrying the premature stop codon (PTC) mutation G542X; assay: CFTR-PTC mutant translation readthrough, Nanoluc tagged CFTR luminescence (G542X cell line); type: cell-based; details: in combination with G418, G542X cell line; for CFTR G542X ACTIVITY Fold 10 μM G-418: fold over 10 μM G-418; for pEC50: 16HBE cells
Method: as §1

| Structure (SMILES) | CFTR R1162X ACTIVITY Fold 10 μM G-418 [1] | pEC50 [1] | CFTR G542X ACTIVITY Fold 10 μM G-418 [2] | pEC50 [2] |
| --- | --- | --- | --- | --- |
| Cc1cccc(C(F)(F)F)c1COc1ccc(N2C(=O)CN(C)C2=O)cc1 | A′ (A′ = ≥10X) | 5.00 to 6.00 | A′ (A′ = ≥10X) | > 6.00 |
| CC(=O)NC[C@@H]1CN(c2ncc(OCc3c(C)cccc3C(F)(F)F)cn2)CCO1 | A′ (A′ = ≥10X) | 5.00 to 6.00 | A′ (A′ = ≥10X) | > 6.00 |
| Cc1cccc(C(F)(F)F)c1COc1cnc(N2CC3CC(C2)C3O)nc1 (centres unmarked) | A′ (A′ = ≥10X) | 5.00 to 6.00 | A′ (A′ = ≥10X) | 5.00 to 6.00 |
| O=C1NC2(CCCC2)C(=O)N1c1ccc(OCc2c(Cl)cccc2C(F)(F)F)cc1 | B′ (B′ = ≥5X to <10X) | 5.00 to 6.00 | A′ (A′ = ≥10X) | > 6.00 |
| CC1(C)NC(=O)N(c2ccc(OCc3c(Cl)cccc3C(F)(F)F)cc2)C1=O | A′ (A′ = ≥10X) | 5.00 to 6.00 | A′ (A′ = ≥10X) | > 6.00 |
| O[C@@H]1CN(c2ncc(OCc3c(Cl)cccc3Cl)cn2)C[C@@H]1O [(3R,4S)-1-[5-[(2,6-dichlorophenyl)methoxy]pyrimidin-2-yl]pyrrolidine-3,4-diol] | A′ (A′ = ≥10X) | < 5.00 | A′ (A′ = ≥10X) | 5.00 to 6.00 |
| NCc1cn(-c2ccc(OCc3c(Cl)cccc3Cl)cc2)cn1 [Example 227, [1-[4-[(2,6-dichlorophenyl)methoxy]phenyl]imidazol-4-yl]methanamine] | B′ (B′ = ≥5X to <10X) | 5.00 to 6.00 | B′ (B′ = ≥5X to <10X) | 5.00 to 6.00 |
| N#Cc1ncn(-c2ncc(OCc3c(Cl)cccc3Cl)cn2)n1 [1-[5-[(2,6-dichlorophenyl)methoxy]pyrimidin-2-yl]-1,2,4-triazole-3-carbonitrile] | C′ (C′ = <5X) | 5.00 to 6.00 | A′ (A′ = ≥10X) | 5.00 to 6.00 |
| OCc1cn(-c2ccc(CCc3c(Cl)cccc3Cl)cc2)cn1 [[1-[4-[2-(2,6-dichlorophenyl)ethyl]phenyl]imidazol-4-yl]methanol] | A′ (A′ = ≥10X) | < 5.00 | B′ (B′ = ≥5X to <10X) | 5.00 to 6.00 |
| NC(=O)c1ccn(-c2ncc(OCc3c(Cl)cccc3Cl)cn2)n1 [1-[5-[(2,6-dichlorophenyl)methoxy]pyrimidin-2-yl]pyrazole-3-carboxamide] | B′ (B′ = ≥5X to <10X) | > 6.00 | A′ (A′ = ≥10X) | > 6.00 |
| OCc1nc(-c2ncc(OCc3c(Cl)cccc3Cl)cn2)co1 [[4-[5-[(2,6-dichlorophenyl)methoxy]pyrimidin-2-yl]oxazol-2-yl]methanol] | A′ (A′ = ≥10X) | 5.00 to 6.00 | A′ (A′ = ≥10X) | 5.00 to 6.00 |
| Cc1cccc(C(F)(F)F)c1COc1ccc(N2CC(=O)N(C)C2=O)nc1 | A′ (A′ = ≥10X) | > 6.00 | A′ (A′ = ≥10X) | > 6.00 |
| CC(=O)N1CCN(c2ncc(OCc3c(C)cccc3C(F)(F)F)cn2)CC1CN (racemic) | C′ (C′ = <5X) | 5.00 to 6.00 | C′ (C′ = <5X) | 5.00 to 6.00 |
| CC1CN(c2ncc(OCc3c(Cl)cccc3Cl)cn2)CCN1C(N)=O (centres unmarked) | A′ (A′ = ≥10X) | > 6.00 | A′ (A′ = ≥10X) | > 6.00 |
| NCC1CN(c2ncc(OCc3c(Cl)cccc3Cl)cn2)CCO1 (centres unmarked) [[4-[5-[(2,6-dichlorophenyl)methoxy]pyrimidin-2-yl]morpholin-2-yl]methanamine] | A′ (A′ = ≥10X) | 5.00 to 6.00 | A′ (A′ = ≥10X) | > 6.00 |
| OCc1ncn(-c2ncc(OCc3c(Cl)cccc3C(F)(F)F)cn2)n1 | A′ (A′ = ≥10X) | 5.00 to 6.00 | A′ (A′ = ≥10X) | > 6.00 |

| Structure (SMILES) | CFTR R1162X ACTIVITY Fold 10 μM G-418 [1] | pEC50 [1] | CFTR G542X ACTIVITY Fold 10 μM G-418 [2] | pEC50 [2] |
| --- | --- | --- | --- | --- |
| CC(=O)NC[C@H]1CN(c2ncc(OCc3c(C)cccc3C(F)(F)F)cn2)CCO1 | A′ (A′ = ≥10X) | 5.00 to 6.00 | A′ (A′ = ≥10X) | > 6.00 |
| CN1CCN(c2ncc(OCc3c(Cl)cccc3Cl)cn2)CC1=O [4-[5-[(2,6-dichlorophenyl)methoxy]pyrimidin-2-yl]-1-methyl-piperazin-2-one] | A′ (A′ = ≥10X) | 5.00 to 6.00 | A′ (A′ = ≥10X) | 5.00 to 6.00 |
| C[C@H]1CO[C@@H](CO)CN1c1ncc(OCc2c(Cl)cccc2Cl)cn1 (racemic) | A′ (A′ = ≥10X) | > 6.00 | A′ (A′ = ≥10X) | > 6.00 |
| Cc1cccc(C(F)(F)F)c1COc1cnc(N2CCC(O)(c3cccnc3)CC2)nc1 | A′ (A′ = ≥10X) | > 6.00 | A′ (A′ = ≥10X) | > 6.00 |
| OCc1cnn(-c2ncc(OCc3c(Cl)cccc3Cl)cn2)n1 [[2-[5-[(2,6-dichlorophenyl)methoxy]pyrimidin-2-yl]triazol-4-yl]methanol] | A′ (A′ = ≥10X) | 5.00 to 6.00 | A′ (A′ = ≥10X) | 5.00 to 6.00 |
| [2H]C([2H])(O)c1ncn(-c2ccc(OC([2H])([2H])c3c(Cl)cccc3C(F)(F)F)cc2)n1 | C′ (C′ = <5X) | > 6.00 | C′ (C′ = <5X) | > 6.00 |
| O=C1CN(c2ccc(OCc3c(Cl)cccc3C(F)(F)F)cn2)C(=O)N1 | A′ (A′ = ≥10X) | > 6.00 | A′ (A′ = ≥10X) | > 6.00 |
| O=C1N[C@H](CO)CN1c1ccc(OCc2c(Cl)cccc2Cl)cn1 | A′ (A′ = ≥10X) | > 6.00 | A′ (A′ = ≥10X) | > 6.00 |
| O=C1O[C@H](CO)CN1c1ccc(OCc2c(Cl)cccc2C(F)(F)F)cn1 | A′ (A′ = ≥10X) | 5.00 to 6.00 | A′ (A′ = ≥10X) | 5.00 to 6.00 |
| Cc1cccc(C(F)(F)F)c1COc1ccc(N2CC(CO)OC2=O)cc1 (centres unmarked) | A′ (A′ = ≥10X) | 5.00 to 6.00 | A′ (A′ = ≥10X) | 5.00 to 6.00 |
| NC(=O)N1CCN(c2ncc(OCc3c(Cl)cccc3Cl)cn2)CC(O)C1 (centres unmarked) | A′ (A′ = ≥10X) | 5.00 to 6.00 | A′ (A′ = ≥10X) | 5.00 to 6.00 |
| Cc1cccc(C(F)(F)F)c1COc1cnc(N2CCC(N)CC2)nc1 | A′ (A′ = ≥10X) | 5.00 to 6.00 | A′ (A′ = ≥10X) | > 6.00 |
| O=C1CN(c2ncc(OCc3c(Cl)cccc3Cl)cn2)CC(CO)N1 (centres unmarked) | A′ (A′ = ≥10X) | 5.00 to 6.00 | A′ (A′ = ≥10X) | 5.00 to 6.00 |
| OCc1ncn(-c2ccc(OCc3c(Cl)cccc3Cl)cc2)n1 [[1-[4-[(2,6-dichlorophenyl)methoxy]phenyl]-1,2,4-triazol-3-yl]methanol] | A′ (A′ = ≥10X) | 5.00 to 6.00 | A′ (A′ = ≥10X) | 5.00 to 6.00 |
| OCC1CN(c2ncc(OCc3c(Cl)cccc3C(F)(F)F)cn2)CCO1 (centres unmarked) | A′ (A′ = ≥10X) | > 6.00 | A′ (A′ = ≥10X) | > 6.00 |
| CNC(=O)N1CCN(c2ncc(OCc3c(Cl)cccc3Cl)cn2)CC1 | A′ (A′ = ≥10X) | > 6.00 | A′ (A′ = ≥10X) | > 6.00 |
